{"source": "patent US10624968B2", "about": "“Compounds for treating cancer” (Bicycle Therapeutics Limited, priority 2017, dated 2020)", "key": {"EBC-1": {"test_system": "EBC-1", "assay": "cells", "settings": "for IC50: read-out: Re IC50", "from_the_text": "(§1) Details of the initial cell plating procedure are described in Table 3.\n(§2) Data Details for Tables 5 and 6. Inhibition %=(Max−Sample value)/(Max−Min)*100.\n(§3) The IC50 curves were generated by 4 Parameter Logistic Model—Sigmoidal Dose-Response Model as follows: Y=Bottom+(Top−Bottom)/(1+10^((log EC50-X)*HillSlope))."}, "HCC1806": {"test_system": "HCC1806", "assay": "cells", "settings": "for IC50: read-out: Re IC50", "from_the_text": "as §1, §2, §3"}, "HCT15": {"test_system": "HCT15", "assay": "cells", "settings": "for IC50: read-out: Re IC50", "from_the_text": "as §1, §2, §3"}, "HT1080": {"test_system": "HT1080", "assay": "cells", "settings": "for IC50: read-out: Re IC50", "from_the_text": "as §1, §2, §3"}, "HT29": {"test_system": "HT29", "assay": "cells", "settings": "for IC50: read-out: Re IC50", "from_the_text": "as §1, §2, §3"}, "MDA-MB-231": {"test_system": "MDA-MB-231", "assay": "cells", "settings": "for IC50: read-out: Re IC50", "from_the_text": "as §1, §2, §3"}, "MOLP-8": {"test_system": "MOLP-8", "assay": "cells", "settings": "for IC50: read-out: Re IC50", "from_the_text": "as §1, §2, §3"}, "NCI-H1975": {"test_system": "NCI-H1975", "assay": "cells", "settings": "for IC50: read-out: Re IC50", "from_the_text": "as §1, §2, §3"}, "NCI-H292": {"test_system": "NCI-H292", "assay": "cells", "settings": "for IC50: read-out: Re IC50", "from_the_text": "as §1, §2, §3"}, "PC-3": {"test_system": "PC-3", "assay": "cells", "settings": "for IC50: read-out: Re IC50", "from_the_text": "as §1, §2, §3"}, "SNU-16": {"test_system": "SNU-16", "assay": "cells", "settings": "for IC50: read-out: Re IC50", "from_the_text": "as §1, §2, §3"}, "11 tumor cell lines": {"test_system": "11 tumor cell lines", "assay": "11 cancer cell line panel cytotoxicity, statements on the whole panel", "settings": "72 h, read-out: IC50 on all 11 tumor cell lines", "from_the_text": "as §1, §2, §3"}, "HT1080 cells": {"test_system": "HT1080 cells", "assay": "Cytotoxicity in HT1080 cells in presence and absence of 1 mM bacitracin (ATPlite, 24 hour exposure)", "method": "HT1080 cells (ATCC, via LGC, BIC918) Maintained in EMEM media (Sigma M2279)+10% FBS (Sigma Code F7524)+4 mM L-Glu (Invitrogen Cat 25030-024)\nI-1a and Toxins with Bacitracin—24 or 72 Hour Exposure in 96 Well Plates\nDB seeded cells in normal media, 75 μL in 96 well clear plates, ˜24 hours previous.\nHT1080—7.5 k cells/well: 50% confluent upon dosing.\nDilute in media 1:42.85=5 μL DMSO dilute+209 μL media=>use 15 μL per well\nThis gives a 5 μM top concentration for BDCs in assay\nAdd 10 µL of media±bacitracin (2 plates of each)−leave for 1 hr\n(§4) Bacitracin=1 mM final concentration. This requires a 10 mM concentration with no DMSO.\nAdd 15 μL treatment per well as in Table 19, below.\nSeal plates with gas permeable membrane and incubate at 37° C.\nWashout HT1080 plates with 2×150 μL PBS at 24 h and add 100 μL fresh media\nAt t=72 h, equilibrate ATPlite reagent to room temperature. Add 10 ml buffer to each vial of lyophilized substrate. Add 100 μL reagent per well. Seal with PCR seal and cover to protect from light. Shake for 20 mins before reading luminescence"}, "L540 cells": {"test_system": "L540 cells", "assay": "Cytotoxicity in L540 cells in presence and absence of 1 mM bacitracin (ATPlite, 72 hour exposure)", "type": "cell-based", "method": "L540 cells (DSMZ # ACC72, BIC5121), maintained in RPMI-1640 medium (Sigma # R8758)+20% heat-inactivated serum\nL540—20 k cells/well: 40% confluent upon dosing.\nas §4\nAdd 100 μL reagent per well. […] Shake for 20 mins before reading luminescence"}}, "note": "Read-outs that look alike come from different tables or passages of the source."}
{"smiles": "CCc1c2c(nc3ccc(O)cc13)-c1cc3c(c(=O)n1C2)COC(=O)[C@]3(O)CC", "note": "[SN38]", "values": [{"measurement": "Top inhibition%", "setting": "EBC-1; EBC-1, 72 hours", "result": 87, "unit": "%"}, {"measurement": "IC50", "setting": "EBC-1; Homo sapiens, EBC-1, 72 h", "result": 2.34, "unit": "nM"}, {"measurement": "Top inhibition%", "setting": "HCC1806; HCC1806, 72 hours", "result": 96, "unit": "%"}, {"measurement": "IC50", "setting": "HCC1806; Homo sapiens, HCC1806, 72 h", "result": 4.69, "unit": "nM"}, {"measurement": "Top inhibition%", "setting": "HCT15; HCT15, 72 hours", "result": 80, "unit": "%"}, {"measurement": "IC50", "setting": "HCT15; Homo sapiens, HCT-15, 72 h", "result": 11.5, "unit": "nM"}, {"measurement": "Top inhibition%", "setting": "HT1080; HT1080, 72 hours", "result": 96, "unit": "%"}, {"measurement": "IC50", "setting": "HT1080; Homo sapiens, HT-1080, 72 h", "result": 1.35, "unit": "nM"}, {"measurement": "Top inhibition%", "setting": "HT29; HT29, 72 hours", "result": 98, "unit": "%"}, {"measurement": "IC50", "setting": "HT29; Homo sapiens, HT-29, 72 h", "result": 23.7, "unit": "nM"}, {"measurement": "IC50", "setting": "MDA-MB-231; Homo sapiens, MDA-MB-231, 72 h", "result": 25.1, "unit": "nM"}, {"measurement": "Top inhibition%", "setting": "MDA-MB-231; MDA-MB-231, 72 hours", "result": 78, "unit": "%"}, {"measurement": "IC50", "setting": "MOLP-8; Homo sapiens, MOLP-8, 72 h", "result": 3.59, "unit": "nM"}, {"measurement": "Top inhibition%", "setting": "MOLP-8; MOLP-8, 72 hours", "result": 88, "unit": "%"}, {"measurement": "IC50", "setting": "NCI-H1975; Homo sapiens, NCI-H1975, 72 h", "result": 272, "unit": "nM"}, {"measurement": "Top inhibition%", "setting": "NCI-H1975; NCI-H1975, 72 hours", "result": 116, "unit": "%"}, {"measurement": "IC50", "setting": "NCI-H292; Homo sapiens, NCI-H292, 72 h", "result": 3.48, "unit": "nM"}, {"measurement": "Top inhibition%", "setting": "NCI-H292; NCI-H292, 72 hours", "result": 92, "unit": "%"}, {"measurement": "IC50", "setting": "PC-3; Homo sapiens, PC-3, 72 h", "result": 48.7, "unit": "nM"}, {"measurement": "Top inhibition%", "setting": "PC-3; PC-3, 72 hours", "result": 78, "unit": "%"}, {"measurement": "IC50", "setting": "SNU-16; Homo sapiens, SNU-16, 72 h", "result": 2.14, "unit": "nM"}, {"measurement": "Top inhibition%", "setting": "SNU-16; SNU-16, 72 hours", "result": 76, "unit": "%"}, {"measurement": "IC50", "setting": "11 tumor cell lines", "result": "< 300", "unit": "nM"}]}
{"smiles": "COc1cc2cc(c1Cl)N(C)C(=O)C[C@H](OC(=O)[C@H](C)N(C)C(=O)CCSSC)[C@]1(C)O[C@H]1[C@H](C)[C@@H]1C[C@@](O)(NC(=O)O1)[C@H](OC)/C=C/C=C(\\C)C2", "note": "[DM1-Sme]", "values": [{"measurement": "Top inhibition%", "setting": "EBC-1; EBC-1, 72 hours", "result": 65, "unit": "%"}, {"measurement": "IC50", "setting": "EBC-1; EBC-1, 72 hours", "result": 0.32, "unit": "nM"}, {"measurement": "Top inhibition%", "setting": "HCC1806; HCC1806, 72 hours", "result": 88, "unit": "%"}, {"measurement": "IC50", "setting": "HCC1806; HCC1806, 72 hours", "result": 0.62, "unit": "nM"}, {"measurement": "Top inhibition%", "setting": "HCT15; HCT15, 72 hours", "result": 94, "unit": "%"}, {"measurement": "IC50", "setting": "HCT15; HCT15, 72 hours", "result": 0.94, "unit": "nM"}, {"measurement": "Top inhibition%", "setting": "HT1080; HT1080, 72 hours", "result": 99, "unit": "%"}, {"measurement": "IC50", "setting": "HT1080; HT1080, 72 hours", "result": 0.22, "unit": "nM"}, {"measurement": "Top inhibition%", "setting": "HT29; HT29, 72 hours", "result": 82, "unit": "%"}, {"measurement": "IC50", "setting": "HT29; HT29, 72 hours", "result": 0.68, "unit": "nM"}, {"measurement": "Top inhibition%", "setting": "MDA-MB-231; MDA-MB-231, 72 hours", "result": 49, "unit": "%"}, {"measurement": "IC50", "setting": "MDA-MB-231; MDA-MB-231, 72 hours", "result": 0.79, "unit": "nM"}, {"measurement": "Top inhibition%", "setting": "MOLP-8; MOLP-8, 72 hours", "result": 92, "unit": "%"}, {"measurement": "IC50", "setting": "MOLP-8; MOLP-8, 72 hours", "result": 0.21, "unit": "nM"}, {"measurement": "Top inhibition%", "setting": "NCI-H1975; NCI-H1975, 72 hours", "result": 64, "unit": "%"}, {"measurement": "IC50", "setting": "NCI-H1975; NCI-H1975, 72 hours", "result": 1.52, "unit": "nM"}, {"measurement": "Top inhibition%", "setting": "NCI-H292; NCI-H292, 72 hours", "result": 77, "unit": "%"}, {"measurement": "IC50", "setting": "NCI-H292; NCI-H292, 72 hours", "result": 0.27, "unit": "nM"}, {"measurement": "Top inhibition%", "setting": "PC-3; PC-3, 72 hours", "result": 54, "unit": "%"}, {"measurement": "IC50", "setting": "PC-3; PC-3, 72 hours", "result": 0.18, "unit": "nM"}, {"measurement": "Top inhibition%", "setting": "SNU-16; SNU-16, 72 hours", "result": 98, "unit": "%"}, {"measurement": "IC50", "setting": "SNU-16; SNU-16, 72 hours", "result": 0.77, "unit": "nM"}, {"measurement": "Fold shift with bacitracin", "setting": "HT1080 cells; 24 hour exposure, 1 mM bacitracin vs none", "result": 5.9}, {"measurement": "IC50", "setting": "HT1080 cells; read-out: IC50 with 1 mM bacitracin, 24 hour exposure, + 1 mM bacitracin (PDI inhibitor)", "result": 0.41, "unit": "nM"}, {"measurement": "IC50", "setting": "HT1080 cells; read-out: Standard IC50, 24 hour exposure (high MT1 expression), no block", "result": 0.07, "unit": "nM"}, {"measurement": "IC50", "setting": "L540 cells; 72 hour exposure (low/no MT1 expression), no block, read-out: Standard IC50", "result": 9.6, "unit": "nM"}, {"measurement": "IC50", "setting": "L540 cells; read-out: IC50 with 1 mM bacitracin, 72 hour exposure, + 1 mM bacitracin", "result": 12, "unit": "nM"}]}
